Measurements taken from patent publication US20240277800A1, “PHARMACEUTICAL COMPOSITION COMPRISING MACROCOSINE COMPOUND AND METHOD FOR PREPARING MACROCOSINE COMPOUND” (priority 2021, published 2024).
≈ marks a conversion by molar mass, not a printed value. Where two headings read alike, the source gives them in different places.

Tested on: M. tuberculosis
Assay: Antibacterial activity against tuberculosis bacteria, resazurin (REMA) MIC50
Format: cell-based
Conditions: Mycobacterium tuberculosis

## C/C=C(\NC(=O)c1csc(-c2csc(-c3ccc4c(n3)-c3csc(n3)[C@H]([C@@H](C)O)NC(=O)c3csc(n3)[C@H](C(C)C)NC(=O)c3csc(n3)/C(=C/C)NC(=O)[C@H]([C@@H](C)O)NC(=O)c3csc-4n3)n2)n1)C(=O)NCC(C)=O [Micrococcin P2]
Extensively Drug Resistant #3 (XDR-3), read-out: MIC50
  MIC50: 0.375 µM (≈ 0.428 µg/mL)
Extensively Drug Resistant #4 (XDR-4), read-out: MIC50
  MIC50: 0.094 µM (≈ 0.107 µg/mL)
Extensively Drug Resistant #5 (XDR-5), read-out: MIC50
  MIC50: 0.114 µM (≈ 0.13 µg/mL)
Extensively Drug Resistant #6 (XDR-6), read-out: MIC50
  MIC50: 0.722 µM (≈ 0.825 µg/mL)
Extensively Drug Resistant #10 (XDR-7)
  MIC50: 0.209 µM (≈ 0.239 µg/mL)
Multi Drug Resistant isolate #3 (MDR-3), read-out: MIC50
  MIC50: 0.073 µM (≈ 0.0834 µg/mL)
Multi Drug Resistant isolate #4 (MDR-4), read-out: MIC50
  MIC50: 0.169 µM (≈ 0.193 µg/mL)
Multi Drug Resistant isolate #11 (MDR-11), read-out: MIC50
  MIC50: 0.051 µM (≈ 0.0583 µg/mL)
Multi Drug Resistant isolate #20 (MDR-20), read-out: MIC50
  MIC50: 2.3 µM (≈ 2.63 µg/mL)
Multi Drug Resistant isolate #21 (MDR-21), read-out: MIC50
  MIC50: 0.044 µM (≈ 0.0503 µg/mL)
Multi Drug Resistant isolate #30 (MDR-30), read-out: MIC50
  MIC50: 0.304 µM (≈ 0.347 µg/mL)
